Laboratory results as given in US8722731B2, “Furanyl compounds and the use thereof” (NovoMedix, LLC, priority 2010, dated 2014).
Values belong to the compound of their own block, whether it stands above or below them.

Tests used:
MDA-MB-415 = experiment: IC50 cell-based assay, adherent cells, MDA-MB-415; conditions: Homo sapiens, Breast, adenocarcinoma, 72 hours, read-out: IC50 of Compounds in Adherent Cell Types
Procedure: (§1) In one embodiment, the IC50s of the compounds provided herein were determined in cell-based assays using adherent cells. In one embodiment, the activity of the compounds provided herein were determined in a cell-based assay using the triple negative breast cancer cell line MDA-MB-468. In one embodiment, the adherent cells used in the cell-based assays may be a cell type selected from Table 1. In one embodiment, the cell-based assay may be carried out as provided herein. On day 0, cells were seeded at 20,000 cells per well in 100 µL of media into individual wells of a 96-well tissue culture plate. The next day, compounds were diluted to twice the desired final concentration and added in 100 µL of media for a final volume of 200 μL. Standard solutions for each compound were prepared at 1000× concentration in DMSO. The highest concentration was 30 mM. Serial 1:1 dilutions were made from there for a 6- or 9-point curve (e.g., 30 mM, 15 mM, 7.5 mM, etc). Compounds were then diluted 1:500 in media, and 100 µL of the resulting solution was added to each well for a final dilution of 1:1000. […] Cells were placed back in the incubator, and the absorbance at 490 nm was read after 2-3 hours. […] “Percent Viability” was determined by subtracting the average background value (media only) and expressed as a ratio to the average value obtained from cells treated with only DMSO.

BxPc-3 = experiment: IC50 cell-based assay, adherent cells, BxPc-3; conditions: Homo sapiens, Pancreas, adenocarcinoma, 72 hours, read-out: IC50 of Compounds in Adherent Cell Types
Procedure: as §1

K562 = experiment: IC50 cell-based assay, suspension cells, K562; conditions: Homo sapiens, Leukemia, CML, read-out: IC50 of Compounds in Suspension Cell Types
Procedure: (§2) In one embodiment, the IC50s of the compounds provided herein were determined in cell-based assays using adherent cells. In one embodiment, the activity of the compounds provided herein were determined in a cell-based assay using the triple negative breast cancer cell line MDA-MB-468. In one embodiment, the adherent cells used in the cell-based assays may be a cell type selected from Table 1. In one embodiment, the cell-based assay may be carried out as provided herein. On day 0, cells were seeded at 20,000 cells per well in 100 µL of media into individual wells of a 96-well tissue culture plate. The next day, compounds were diluted to twice the desired final concentration and added in 100 µL of media for a final volume of 200 μL. […] Cells were placed back in the incubator, and the absorbance at 490 nm was read after 2-3 hours. […] “Percent Viability” was determined by subtracting the average background value (media only) and expressed as a ratio to the average value obtained from cells treated with only DMSO.
(§3) In one embodiment, the IC50s of the compounds provided herein were determined in cell-based assays using suspension cells. In one embodiment, the activity of the compounds provided herein were determined in a cell-based assay using the JeKo-1 cell line (mantle cell lymphoma) or the Pfeiffer cell line (diffuse large B-cell lymphoma). […]

Panc-1 = experiment: IC50 cell-based assay, adherent cells, Panc-1; conditions: Homo sapiens, Pancreas, epitheloid carcinoma, 72 hours, read-out: IC50 of Compounds in Adherent Cell Types
Procedure: (§4) In one embodiment, the IC50s of the compounds provided herein were determined in cell-based assays using adherent cells. In one embodiment, the activity of the compounds provided herein were determined in a cell-based assay using the triple negative breast cancer cell line MDA-MB-468. In one embodiment, the adherent cells used in the cell-based assays may be a cell type selected from Table 1. In one embodiment, the cell-based assay may be carried out as provided herein. On day 0, cells were seeded at 20,000 cells per well in 100 µL of media into individual wells of a 96-well tissue culture plate. The next day, compounds were diluted to twice the desired final concentration and added in 100 µL of media for a final volume of 200 μL. Standard solutions for each compound were prepared at 1000× concentration in DMSO. The highest concentration was 30 mM. Serial 1:1 dilutions were made from there for a 6- or 9-point curve (e.g., 30 mM, 15 mM, 7.5 mM, etc). Compounds were then diluted 1:500 in media, and 100 µL of the resulting solution was added to each well for a final dilution of 1:1000. Each concentration of compound was tested in triplicate. Cells were incubated at 37° C. with 5% CO2. After 72 hours, 20 μL of CellTiter 96 Aqueous One Solution Cell Proliferation Assay (Promega) was added to each well. Cells were placed back in the incubator, and the absorbance at 490 nm was read after 2-3 hours. The concentration of compound that decreased the number of metabolically active cells by 50% was determined and reported as the IC50. “Percent Viability” was determined by subtracting the average background value (media only) and expressed as a ratio to the average value obtained from cells treated with only DMSO.

HEK-293 = experiment: IC50 cell-based assay, adherent cells, HEK-293; conditions: Homo sapiens, HEK293, Kidney, embryonic, 72 hours, read-out: IC50 of Compounds in Adherent Cell Types
Procedure: as §1

XPA-1 = experiment: IC50 cell-based assay, adherent cells, XPA-1; conditions: Pancreas, 72 hours, read-out: IC50 of Compounds in Adherent Cell Types
Procedure: as §1

Nalm-6 = experiment: IC50 cell-based assay, suspension cells, Nalm-6; conditions: Homo sapiens, Leukemia, B-ALL, read-out: IC50 of Compounds in Suspension Cell Types
Procedure: as §4
In one embodiment, the IC50s of the compounds provided herein were determined in cell-based assays using suspension cells. In one embodiment, the activity of the compounds provided herein were determined in a cell-based assay using the JeKo-1 cell line (mantle cell lymphoma) or the Pfeiffer cell line (diffuse large B-cell lymphoma). In one embodiment, the suspension cells used in the cell-based assays may be a cell type selected from Table 2. Assays with suspension cells were similar except that 40,000-60,000 cells were added to each well and compounds were added immediately after cell plating.

MDA-MB-468 breast tumors = experiment: Tumor growth inhibition in MDA-MB-468 mouse xenograft model for breast cancer (tumor volume); format: in vivo; conditions: SCID mice
Procedure: In one embodiment, the effects of a compound provided herein on tumor growth in a mouse animal model were evaluated. In specific embodiments, the mouse animal model was the MDA-MB-468 xenograft model for breast cancer. Studies were performed to evaluate the effect of a compound provided herein on the growth of MDA-MB-468 breast tumors in mice. The test system that was used is summarized below:
Exemplary Protocol: Ten mice per group were inoculated s.c. on the left flank with 5×10^6 MDA-MB-468 cells. When tumors reached a mean volume of 100 or 200 mm^3, animals began treatment with a compound provided herein (See Table 4). Test article or vehicle were given once daily by IP injection for up to 21 days. Tumors were evaluated every Monday, Wednesday and Friday, body weights and condition were evaluated on a daily basis.
Cell Culture: MDA-MB-468 breast cancer cells were grown in Liebowitz's L-15 with 10% fetal bovine serum and 1% pen/strep. Cells were routinely trypsinized and passaged 1:4. On the day of implantation, cells were washed in PBS, trypsinized and resuspended in complete media. Cells were washed 3× in serum free media (centrifuged 1000 rpm for 5 min). Cells were resuspended to a density of 1×10^8 cells/mL and diluted 1:1 with Matrigel. Cells were implanted s.c. using a 23 G needle in a volume of 0.1 mL.
Tumor Measurement: Tumors were monitored daily. If, during a daily evaluation, an animal's tumor appeared to have exceeded 1500 mm^3, the tumor was measured; and animals with tumors greater than 1500 mm^3 and/or that had become necrotic and/or hindered movement were euthanized. Tumors were measured twice weekly by measuring each tumor in 2 dimensions, along the largest dimension (length, L) and perpendicular to this dimension (width, W). Tumor weights were calculated using the standard formula: (L×W^2)/2. The mean tumor weight and standard error of the mean were calculated for each group at each time point. An ANOVA was used to compare differences of primary tumor volume.
Compound 1 was dosed in mice at a dose of, for example, qd 50 mg/kg, for 22 days or more.
Compound 2 was dosed in mice at a dose of, for example, qd 20 mg/kg from day 0 to 7, then qd 10 mg/kg from day 8 and thereafter, for 22 days or more.

Du145 = experiment: IC50 cell-based assay, adherent cells, Du145; conditions: Homo sapiens, DU-145, Prostate, carcinoma, 72 hours, read-out: IC50 of Compounds in Adherent Cell Types
Procedure: as §1

Molt-4 = experiment: IC50 cell-based assay, suspension cells, Molt-4; conditions: Homo sapiens, Leukemia, ALL, read-out: IC50 of Compounds in Suspension Cell Types
Procedure: as §2, §3

RT-4 = experiment: IC50 cell-based assay, adherent cells, RT-4; conditions: Homo sapiens, Bladder, papilloma, 72 hours, read-out: IC50 of Compounds in Adherent Cell Types
Procedure: as §4

MS1 = experiment: IC50 cell-based assay, adherent cells, MS1; conditions: Mus musculus, MS-1, Pancreas, angiosarcoma, 72 hours, read-out: IC50 of Compounds in Adherent Cell Types
Procedure: as §1

SEMK = experiment: IC50 cell-based assay, suspension cells, SEMK; conditions: Leukemia, read-out: IC50 of Compounds in Suspension Cell Types
Procedure: as §2, §3

IC50 (MDA-MB-415): < 5 µM
IC50 (BxPc-3): 5 to 10 µM
IC50 (K562): < 5 µM
IC50 (Panc-1): < 5 µM
IC50 (XPA-1): 5 to 10 µM
IC50 (Nalm-6): < 5 µM
IC50 (Du145): 5 to 10 µM
IC50 (Molt-4): < 5 µM
IC50 (RT-4): 10 to 20 µM
IC50 (MS1): < 5 µM
IC50 (SEMK): < 5 µM
Structure (SMILES): O=C(Nc1cc(C(F)(F)F)cc(C(F)(F)F)c1)c1cc(-c2ccccc2)oc1C(F)(F)F [Compound 1, 5-Phenyl-2-trifluoromethyl-furan-3-carboxylic acid (3,5-bis-trifluoromethyl-phenyl)-amide]
IC50 (HEK-293): < 5 µM
Tumor Volumes in Control and Treated Animals, mean (MDA-MB-468 breast tumors; Day 1, qd 50 mg/kg IP): 112.66 mm^3
Tumor Volumes in Control and Treated Animals, mean (MDA-MB-468 breast tumors; Day 3, qd 50 mg/kg IP): 101.41 mm^3
Tumor Volumes in Control and Treated Animals, mean (MDA-MB-468 breast tumors; Day 5, qd 50 mg/kg IP): 91.44 mm^3
Tumor Volumes in Control and Treated Animals, mean (MDA-MB-468 breast tumors; Day 8, qd 50 mg/kg IP): 146.58 mm^3
Tumor Volumes in Control and Treated Animals, mean (MDA-MB-468 breast tumors; Day 10, qd 50 mg/kg IP): 175.96 mm^3
Tumor Volumes in Control and Treated Animals, mean (MDA-MB-468 breast tumors; Day 12, qd 50 mg/kg IP): 226.90 mm^3
Tumor Volumes in Control and Treated Animals, mean (MDA-MB-468 breast tumors; Day 15, qd 50 mg/kg IP): 276.23 mm^3
Tumor Volumes in Control and Treated Animals, mean (MDA-MB-468 breast tumors; Day 17, qd 50 mg/kg IP): 336.22 mm^3
Tumor Volumes in Control and Treated Animals, mean (MDA-MB-468 breast tumors; Day 19, qd 50 mg/kg IP): 366.60 mm^3
Tumor Volumes in Control and Treated Animals, mean (MDA-MB-468 breast tumors; Day 22, qd 50 mg/kg IP): 383.38 mm^3

IC50 (Panc-1): 5 to 10 µM
IC50 (Nalm-6): < 5 µM
IC50 (RT-4): > 20 µM
Structure (SMILES): O=C(Nc1cc(C(F)(F)F)cc(C(F)(F)F)c1)c1cc(-c2ccc(Cl)cc2)oc1C(F)(F)F [Compound 2, 5-(4-Chlorophenyl)-N-(3,5-bistrifluoromethylphenyl)-2-trifluoromethylfuran-3-carboxamide]
Tumor Volumes in Control and Treated Animals, mean (MDA-MB-468 breast tumors; Day 1, qd 20 mg/kg days 0 to 7, then qd 10 mg/kg day 8 and thereafter, IP): 119.09 mm^3
Tumor Volumes in Control and Treated Animals, mean (MDA-MB-468 breast tumors; Day 3, qd 20 mg/kg days 0 to 7, then qd 10 mg/kg day 8 and thereafter, IP): 103.39 mm^3
Tumor Volumes in Control and Treated Animals, mean (MDA-MB-468 breast tumors; Day 5, qd 20 mg/kg days 0 to 7, then qd 10 mg/kg day 8 and thereafter, IP): 119.30 mm^3
Tumor Volumes in Control and Treated Animals, mean (MDA-MB-468 breast tumors; Day 8, qd 20 mg/kg days 0 to 7, then qd 10 mg/kg day 8 and thereafter, IP): 139.19 mm^3
Tumor Volumes in Control and Treated Animals, mean (MDA-MB-468 breast tumors; Day 10, qd 20 mg/kg days 0 to 7, then qd 10 mg/kg day 8 and thereafter, IP): 181.97 mm^3
Tumor Volumes in Control and Treated Animals, mean (MDA-MB-468 breast tumors; Day 12, qd 20 mg/kg days 0 to 7, then qd 10 mg/kg day 8 and thereafter, IP): 234.51 mm^3
Tumor Volumes in Control and Treated Animals, mean (MDA-MB-468 breast tumors; Day 15, qd 20 mg/kg days 0 to 7, then qd 10 mg/kg day 8 and thereafter, IP): 276.34 mm^3
Tumor Volumes in Control and Treated Animals, mean (MDA-MB-468 breast tumors; Day 17, qd 20 mg/kg days 0 to 7, then qd 10 mg/kg day 8 and thereafter, IP): 311.15 mm^3
Tumor Volumes in Control and Treated Animals, mean (MDA-MB-468 breast tumors; Day 19, qd 20 mg/kg days 0 to 7, then qd 10 mg/kg day 8 and thereafter, IP): 318.18 mm^3
Tumor Volumes in Control and Treated Animals, mean (MDA-MB-468 breast tumors; Day 22, qd 20 mg/kg days 0 to 7, then qd 10 mg/kg day 8 and thereafter, IP): 356.43 mm^3
